Measured values as given in US20260092057A1, “BCL-XL/BCL-2 DEGRADERS AND USES THEREOF” (Kymera Therapeutics, Inc., priority 2022, published 2026).

Legend:
MOLT-4 cells = experiment: CTG (CellTiter-Glo) cell viability assay, MOLT-4; format: cell-based; conditions: Homo sapiens, MOLT-4, 72 h, MOLT-4, 3 day; read-out: CTG Cell Viability Assay - MOLT-4 3 day: Average external-IC50
Description: (§1) Compound-mediated viability effect on MOLT-4 and Caki-2 was quantitatively determined using the CellTiter-Glo® Luminescent Cell Viability Assay kit from Promega (Catalog number G7570) following manufacturer's recommended procedures. Briefly, MOLT-4 and Caki-2 cells were seeded into 384 well plates (Grenier Bio-One, Catalog number 781080) with a density of 10,000 cells per well. Compounds were then added to the assay plate with final top concentration of 10 µM and 1:3 dilution series with total of 9 doses. The final DMSO concentration is normalized to 0.2%. The assay plates were incubated at 37° C. for 3 days under 5% CO2. Then the assay plate was equilibrated at room temperature for 10 minutes. To determine cell viability, 30 uL CellTiter Glo reagent was added to each well and the assay plate was centrifuged at 1000 rpm for 30 second, incubated at room temperature for 10 min, and analyzed by detecting the luminescence using a multimode plate reader (EnVision 2105, PerkinElmer). The data was then analyzed by software Prism 7.0 from GraphPad and the dose response curves are fit using a three-parameter logistic equation to calculate IC50.
(§2) The letter codes for MOLT-4 IC50 include: A (<0.1 μM); B (0.1-1.0 μM); C (>1.0-3.0 μM); and D (>3.0 μM). The letter codes for Caki-2 IC50 include: A (<5 μM); B (5-10 μM); C (>10-30.0 μM); and D (>30.0 μM).

Caki-2 cells = experiment: CTG (CellTiter-Glo) cell viability assay, Caki-2; format: cell-based; conditions: Homo sapiens, CAKI-2, 72 h, Caki-2, 3-day; read-out: CTG Chempartner/PHA- Caki-2 3-day: Average external-IC50
Description: as §1, §2

SMILES	IC50 (MOLT-4 cells) [nM]	IC50 (Caki-2 cells) [nM]
Cc1ncsc1-c1ccc([C@H](C)NC(=O)[C@@H]2C[C@@H](O)CN2C(=O)[C@@H](NC(=O)C2CCN(c3ccc(S(=O)(=O)NC(=O)c4ccc(-c5ccc(Cl)cc5)c(CN5CCN(c6ccc(C(=O)NS(=O)(=O)c7ccc(N[C@H](CCN(C)C)CSc8ccccc8)c([N+](=O)[O-])c7)cc6)CC5)c4)cc3)CC2)C(C)(C)C)cc1 [I-15]	> 3000	> 30000
Cc1ncsc1-c1ccc([C@H](C)NC(=O)[C@@H]2C[C@@H](O)CN2C(=O)[C@@H](NC(=O)CCCCC(=O)N2C[C@H]3C[C@@H]2CN3Cc2ccc(-c3ccc(Cl)cc3)c(CN3CCN(c4ccc(C(=O)NS(=O)(=O)c5ccc(N[C@H](CCN(C)C)CSc6ccccc6)c([N+](=O)[O-])c5)cc4)CC3)c2)C(C)(C)C)cc1 [I-16]	> 3000	> 30000
Cc1ncsc1-c1ccc([C@H](C)NC(=O)[C@@H]2C[C@@H](O)CN2C(=O)[C@@H](NC(=O)CCCCC(=O)N2CCC3(CCN(Cc4ccc(-c5ccc(Cl)cc5)c(CN5CCN(c6ccc(C(=O)NS(=O)(=O)c7ccc(N[C@H](CCN(C)C)CSc8ccccc8)c([N+](=O)[O-])c7)cc6)CC5)c4)CC3)CC2)C(C)(C)C)cc1 [I-17]	> 3000	> 30000
Cc1ncsc1-c1ccc(CNC(=O)[C@@H]2C[C@@H](O)CN2C(=O)[C@@H](NC(=O)C2(F)CC2)C(C)(C)C)c(OCCCCCCC(=O)N2CCN(Cc3ccc(-c4ccc(Cl)cc4)c(CN4CCN(c5ccc(C(=O)NS(=O)(=O)c6ccc(N[C@H](CCN(C)C)CSc7ccccc7)c([N+](=O)[O-])c6)cc5)CC4)c3)CC2)c1 [I-18]	> 3000	> 30000
Cc1ncsc1-c1ccc([C@H](C)NC(=O)[C@@H]2C[C@@H](O)CN2C(=O)[C@@H](NC(=O)CCCCCCCCC(=O)NCc2ccc(-c3ccc(Cl)cc3)c(CN3CCN(c4ccc(C(=O)NS(=O)(=O)c5ccc(N[C@H](CCN(C)C)CSc6ccccc6)c([N+](=O)[O-])c5)cc4)CC3)c2)C(C)(C)C)cc1 [I-20]	> 3000	> 30000
Cc1ncsc1-c1ccc([C@H](C)NC(=O)[C@@H]2C[C@@H](O)CN2C(=O)[C@@H](NC(=O)CCCCCC(=O)N2CCN(Cc3ccc(-c4ccc(Cl)cc4)c([C@H](O)C4CCN(c5ccc(C(=O)NS(=O)(=O)c6ccc(N[C@H](CCN(C)CCO)CSc7ccccc7)c(S(=O)(=O)C(F)(F)F)c6)cc5)CC4)c3)CC2)C(C)(C)C)cc1 [I-30]	> 3000	> 30000
Cc1ncsc1-c1ccc([C@H](C)NC(=O)[C@@H]2C[C@@H](O)CN2C(=O)[C@@H](NC(=O)CCCCCC(=O)N2CCN(CC[C@H](CSc3ccccc3)Nc3ccc(S(=O)(=O)NC(=O)c4ccc(NC5CC(C)C5)cc4)cc3S(=O)(=O)C(F)(F)F)CC2)C(C)(C)C)cc1 (stereo partly shown) [I-44]	> 3000	> 30000
Cc1ncsc1-c1ccc([C@H](C)NC(=O)[C@@H]2C[C@@H](O)CN2C(=O)[C@@H](NC(=O)CCCCCC(=O)N2CCN(CC[C@H](CSc3ccccc3)Nc3ccc(S(=O)(=O)NC(=O)c4ccc(N5CC6(CCC6)C5)cc4)cc3S(=O)(=O)C(F)(F)F)CC2)C(C)(C)C)cc1 [I-45]	> 3000	> 30000
Cc1ncsc1-c1ccc([C@H](C)NC(=O)[C@@H]2C[C@@H](O)CN2C(=O)[C@@H](NC(=O)CCCCCC(=O)N2CCN(CC[C@H](CSc3ccccc3)Nc3ccc(S(=O)(=O)NC(=O)c4ccc(N5CC[C@@H](N(C)C)C5)cc4)cc3S(=O)(=O)C(F)(F)F)CC2)C(C)(C)C)cc1 [I-46]	> 3000	> 30000
Cc1ncsc1-c1ccc([C@H](C)NC(=O)[C@@H]2C[C@@H](O)CN2C(=O)[C@@H](NC(=O)CCCCCC(=O)N2CCN(CC[C@H](CSc3ccccc3)Nc3ccc(S(=O)(=O)NC(=O)c4ccc(N5CC6CN(C)CC6C5)cc4)cc3S(=O)(=O)C(F)(F)F)CC2)C(C)(C)C)cc1 (stereo partly shown) [I-47]	> 3000	> 30000

Further lines, with some results ahead:

IC50 (MOLT-4 cells) [nM]	SMILES	IC50 (Caki-2 cells) [nM]
1000 to 3000	Cc1ncsc1-c1ccc([C@H](C)NC(=O)[C@@H]2C[C@@H](O)CN2C(=O)[C@@H](NC(=O)CCCCCC(=O)N(C)CCCNc2ccc(S(=O)(=O)NC(=O)c3ccc(N4CCC([C@H](O)c5ccccc5-c5ccc(Cl)cc5)CC4)cc3Oc3cnc4[nH]ccc4c3)cc2S(=O)(=O)C(F)(F)F)C(C)(C)C)cc1 (single isomer, unassigned) [I-58]	> 30000
> 3000	Cc1ncsc1-c1ccc([C@H](C)NC(=O)[C@@H]2C[C@@H](O)CN2C(=O)[C@@H](NC(=O)CCCC(=O)N2CCN(CCCNc3ccc(S(=O)(=O)NC(=O)c4ccc(N5CCC([C@@H](O)c6ccccc6-c6ccc(Cl)cc6)CC5)cc4Oc4cnc5[nH]ccc5c4)cc3S(=O)(=O)C(F)(F)F)CC2)C(C)(C)C)cc1 (single isomer, unassigned) [I-59]	> 30000
> 3000	Cc1ncsc1-c1ccc([C@H](C)NC(=O)[C@@H]2C[C@@H](N)CN2C(=O)[C@@H](NC(=O)C2CCN(CCCNc3ccc(S(=O)(=O)NC(=O)c4ccc(N5CCC([C@@H](O)c6ccccc6-c6ccc(Cl)cc6)CC5)cc4Oc4cnc5[nH]ccc5c4)cc3S(=O)(=O)C(F)(F)F)CC2)C(C)(C)C)cc1 (single isomer, unassigned) [I-91]	> 30000
> 3000	Cc1ncsc1-c1ccc([C@H](C)NC(=O)[C@@H]2C[C@@H](O)CN2C(=O)[C@@H](NC(=O)CCCCCC(=O)N2CCN(c3ccc(-c4ccc(Cl)cc4)c([C@@H](O)C4CCN(c5ccc(C(=O)NS(=O)(=O)c6ccc(N[C@H](CCN(C)CCO)CSc7ccccc7)c(S(=O)(=O)C(F)(F)F)c6)cc5)CC4)c3)CC2)C(C)(C)C)cc1 (single isomer, unassigned) [I-114]	> 30000
> 3000	Cc1ncsc1-c1ccc([C@H](C)NC(=O)[C@@H]2C[C@@H](O)CN2C(=O)[C@@H](NC(=O)CCCCCC(=O)N2CCN(CC[C@H](CSc3ccccc3)Nc3ccc(S(=O)(=O)NC(=O)c4ccc(N5CCC(N(C)C)CC5)cc4)cc3S(=O)(=O)C(F)(F)F)CC2)C(C)(C)C)cc1 [I-48]	> 30000
> 3000	Cc1ncsc1-c1ccc([C@H](C)NC(=O)[C@@H]2C[C@@H](O)CN2C(=O)[C@@H](NC(=O)CCCCCC(=O)N2CCN(CC[C@H](CSc3ccccc3)Nc3ccc(S(=O)(=O)NC(=O)c4ccc(N5CC(N(C)C)C5)cc4)cc3S(=O)(=O)C(F)(F)F)CC2)C(C)(C)C)cc1 [I-49]	> 30000
> 3000	Cc1ncsc1-c1ccc([C@H](C)NC(=O)[C@@H]2C[C@@H](O)CN2C(=O)[C@@H](NC(=O)CCCCCC(=O)N2CCN(CC[C@H](CSc3ccccc3)Nc3ccc(S(=O)(=O)NC(=O)c4ccc(N5CCC6(CN(C)C6)C5)cc4)cc3S(=O)(=O)C(F)(F)F)CC2)C(C)(C)C)cc1 [I-50]	> 30000
> 3000	Cc1ncsc1-c1ccc([C@H](C)NC(=O)[C@@H]2C[C@@H](O)CN2C(=O)[C@@H](NC(=O)CCCCCC(=O)N2CCN(CC[C@H](CSc3ccccc3)Nc3ccc(S(=O)(=O)NC(=O)c4ccc(N5CCN(C)CC5)cc4)cc3S(=O)(=O)C(F)(F)F)CC2)C(C)(C)C)cc1 [I-53]	> 30000
> 3000	Cc1ncsc1-c1ccc([C@H](C)NC(=O)[C@@H]2C[C@@H](O)CN2C(=O)[C@@H](NC(=O)CCCCCC(=O)N2CCN(CCCNc3ccc(S(=O)(=O)NC(=O)c4ccc(N5CCC(C)(C)CC5)cc4Oc4cnc5[nH]ccc5c4)cc3S(=O)(=O)C(F)(F)F)CC2)C(C)(C)C)cc1 [I-54]	> 30000
> 3000	Cc1ncsc1-c1ccc([C@H](C)NC(=O)[C@@H]2C[C@@H](O)CN2C(=O)[C@@H](NC(=O)CCCCCC(=O)NCCCNc2ccc(S(=O)(=O)NC(=O)c3ccc(N4CCC([C@@H](O)c5ccccc5-c5ccc(Cl)cc5)CC4)cc3Oc3cnc4[nH]ccc4c3)cc2S(=O)(=O)C(F)(F)F)C(C)(C)C)cc1 [I-55]	> 30000
